Each molecule was assayed against T1, human Nav1.8 (Homo sapiens, UniProt Q9Y5Y9) (assay: Nav1.8 sodium channels assay, QPatch 48 HTX electrophysiology in HEK293-Nav1.8 cells). Details: at least one set of experimental runs; read-out: average pIC50 value against Nav1.8 (converted).
T1 construct: expressed in transfected cells; host or cells: HEK293 (HEK293-Nav1.8)
Assay type: cell-based
Outline: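 IC50 came from 6-8 point curves of P2 current amplitude, normalized to baseline and a positive reference, and corrected for run-down using vehicle-only wells. Automated patch clamp used HEK293-Nav1.8 (with Navβ1 and TREK1) at pH 7.4 outside and CsF-based solution inside. An 8 s inactivating step at −46 mV preceded the 0 mV test pulse, repeated at 0.07 Hz.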

T1 sequence (Q9Y5Y9 whole entry): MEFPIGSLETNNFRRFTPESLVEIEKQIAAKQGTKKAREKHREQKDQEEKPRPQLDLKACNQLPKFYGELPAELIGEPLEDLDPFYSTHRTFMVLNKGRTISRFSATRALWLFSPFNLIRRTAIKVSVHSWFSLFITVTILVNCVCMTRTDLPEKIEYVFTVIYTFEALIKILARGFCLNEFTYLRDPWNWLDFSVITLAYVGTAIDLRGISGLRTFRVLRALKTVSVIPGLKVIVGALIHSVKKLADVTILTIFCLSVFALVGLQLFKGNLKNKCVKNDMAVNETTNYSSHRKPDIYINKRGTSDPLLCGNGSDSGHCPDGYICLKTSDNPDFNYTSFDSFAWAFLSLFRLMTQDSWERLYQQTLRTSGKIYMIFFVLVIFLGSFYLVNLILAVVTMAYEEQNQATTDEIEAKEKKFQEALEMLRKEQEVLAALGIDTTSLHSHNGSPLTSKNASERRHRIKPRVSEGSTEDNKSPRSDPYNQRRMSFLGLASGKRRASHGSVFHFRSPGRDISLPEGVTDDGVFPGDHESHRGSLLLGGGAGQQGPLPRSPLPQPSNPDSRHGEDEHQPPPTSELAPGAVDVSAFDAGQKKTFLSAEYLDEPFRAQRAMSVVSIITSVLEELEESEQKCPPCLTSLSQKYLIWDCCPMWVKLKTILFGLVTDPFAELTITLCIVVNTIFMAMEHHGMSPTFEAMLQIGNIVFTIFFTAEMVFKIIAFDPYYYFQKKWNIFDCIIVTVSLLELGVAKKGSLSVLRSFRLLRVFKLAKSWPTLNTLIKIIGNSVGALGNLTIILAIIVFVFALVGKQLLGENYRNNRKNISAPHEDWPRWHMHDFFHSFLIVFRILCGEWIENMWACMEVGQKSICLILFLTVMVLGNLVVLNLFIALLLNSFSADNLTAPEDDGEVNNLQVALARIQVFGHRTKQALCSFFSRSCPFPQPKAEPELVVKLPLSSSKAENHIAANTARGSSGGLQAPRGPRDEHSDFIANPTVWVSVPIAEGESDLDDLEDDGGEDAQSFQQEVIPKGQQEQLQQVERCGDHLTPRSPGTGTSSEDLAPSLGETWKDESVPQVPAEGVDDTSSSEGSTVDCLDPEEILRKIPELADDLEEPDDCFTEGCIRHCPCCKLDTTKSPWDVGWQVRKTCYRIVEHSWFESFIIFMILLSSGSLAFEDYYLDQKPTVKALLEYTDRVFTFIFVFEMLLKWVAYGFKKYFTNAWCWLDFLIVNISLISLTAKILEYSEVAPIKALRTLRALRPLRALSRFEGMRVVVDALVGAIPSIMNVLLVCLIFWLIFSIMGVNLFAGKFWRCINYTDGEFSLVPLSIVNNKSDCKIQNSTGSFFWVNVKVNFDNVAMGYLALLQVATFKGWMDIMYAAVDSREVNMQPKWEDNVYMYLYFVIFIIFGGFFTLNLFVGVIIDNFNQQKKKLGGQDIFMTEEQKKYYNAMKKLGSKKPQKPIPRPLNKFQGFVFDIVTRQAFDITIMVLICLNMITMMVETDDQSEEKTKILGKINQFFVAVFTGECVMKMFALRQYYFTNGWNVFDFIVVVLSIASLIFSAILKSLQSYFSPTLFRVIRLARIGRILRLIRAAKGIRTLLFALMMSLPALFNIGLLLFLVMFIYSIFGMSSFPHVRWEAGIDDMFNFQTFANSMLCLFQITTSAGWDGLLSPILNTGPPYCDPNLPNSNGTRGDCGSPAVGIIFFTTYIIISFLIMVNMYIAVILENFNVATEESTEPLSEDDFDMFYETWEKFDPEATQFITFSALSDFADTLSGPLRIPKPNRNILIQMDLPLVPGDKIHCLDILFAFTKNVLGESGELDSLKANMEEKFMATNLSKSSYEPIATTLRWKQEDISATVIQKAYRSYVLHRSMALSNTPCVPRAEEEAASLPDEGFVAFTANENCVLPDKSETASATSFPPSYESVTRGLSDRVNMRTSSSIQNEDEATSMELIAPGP
T1 sequence (Q07699 19-218 partner): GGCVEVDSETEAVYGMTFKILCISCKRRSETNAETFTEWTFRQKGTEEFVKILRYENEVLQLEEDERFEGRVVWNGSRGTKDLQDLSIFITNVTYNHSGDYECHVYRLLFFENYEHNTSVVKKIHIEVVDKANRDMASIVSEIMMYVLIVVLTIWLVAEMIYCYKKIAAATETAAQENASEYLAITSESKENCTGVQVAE

`Cc1cc(F)ccc1N1CN(c2ccc(=O)[nH]c2C)C(=O)c2cc(F)c(C(F)(F)F)cc21` [Example 110, 6-fluoro-1-(4-fluoro-2-methylphenyl)-3-(2-methyl-6-oxo-1,6-dihydropyridin-3-yl)-7-(trifluoromethyl)-2,3-dihydroquinazolin-4(1H)-one] and `Cc1cc(F)ccc1N1CN(c2ccc(=O)[nH]c2C)C(=O)c2cc(C(F)(F)F)c(C#N)cc21` [Example 111, 1-(4-fluoro-2-methylphenyl)-3-(2-methyl-6-oxo-1,6-dihydropyridin-3-yl)-4-oxo-6-(trifluoromethyl)-1,2,3,4-tetrahydroquinazoline-7-carbonitrile] cannot be ordered by IC50: at most 100 nM for the first, at most 100 nM for the second.

`Cc1cc(F)ccc1N1CN(c2ccc(=O)[nH]c2C)C(=O)c2cc(C#N)c(OC(F)(F)F)cc21` [Example 112, 1-(4-fluoro-2-methylphenyl)-3-(2-methyl-6-oxo-1,6-dihydropyridin-3-yl)-4-oxo-7-(trifluoromethoxy)-1,2,3,4-tetrahydroquinazoline-6-carbonitrile] and `Cc1cc(F)ccc1N1CN(c2ccc(=O)[nH]c2C)C(=O)c2cc(F)c(OC(F)(F)F)cc21` [Example 129, 6-fluoro-1-(4-fluoro-2-methylphenyl)-3-(2-methyl-6-oxo-1,6-dihydropyridin-3-yl)-7-(trifluoromethoxy)-2,3-dihydroquinazolin-4(1H)-one] cannot be ordered by IC50: at most 100 nM for the first, at most 100 nM for the second.

`Cc1cc(F)c(F)cc1N1CN(c2ccc(=O)[nH]c2C)C(=O)c2cc(C(F)(F)F)ccc21` [Example 113, 1-(4,5-difluoro-2-methylphenyl)-3-(2-methyl-6-oxo-1,6-dihydropyridin-3-yl)-6-(trifluoromethyl)-2,3-dihydroquinazolin-4(1H)-one] and `Cc1cc(F)cc(F)c1N1CN(c2ccc(=O)[nH]c2C)C(=O)c2cc(C(F)(F)F)ccc21` [Example 121, 1-(2,4-difluoro-6-methylphenyl)-3-(2-methyl-6-oxo-1,6-dihydropyridin-3-yl)-6-(trifluoromethyl)-2,3-dihydroquinazolin-4(1H)-one] fall in the same range of IC50: 126 to 631 nM for the first, 126 to 631 nM for the second.

First: Cc1[nH]c(=O)ccc1N1CN(c2ccc(F)cc2C(C)(C)C)c2cc(C(F)(F)F)ccc2C1=O [Example 114, 1-(2-(tert-butyl)-4-fluorophenyl)-3-(2-methyl-6-oxo-1,6-dihydropyridin-3-yl)-7-(trifluoromethyl)-2,3-dihydroquinazolin-4(1H)-one]
Second: Cc1ccc(F)cc1N1CN(c2ccc(=O)[nH]c2C)C(=O)c2cc(C(F)(F)F)ccc21 [Example 118, 1-(5-fluoro-2-methylphenyl)-3-(2-methyl-6-oxo-1,6-dihydropyridin-3-yl)-6-(trifluoromethyl)-2,3-dihydroquinazolin-4(1H)-one]
The IC50 of the first is lower: at most 100 nM for the first, 126 to 631 nM for the second.

`Cc1cc(F)ccc1N1CN(c2cnc(=O)[nH]c2C)C(=O)c2ccc(C(F)(F)F)cc21` [Example 115, 1-(4-fluoro-2-methylphenyl)-3-(6-methyl-2-oxo-1,2-dihydropyrimidin-5-yl)-7-(trifluoromethyl)-2,3-dihydroquinazolin-4(1H)-one] and `Cc1cc(F)ccc1N1CN(c2cc(F)c(=O)[nH]c2C)C(=O)c2cc(C(F)(F)F)ccc21` [Example 131, 3-(5-fluoro-2-methyl-6-oxo-1,6-dihydropyridin-3-yl)-1-(4-fluoro-2-methylphenyl)-6-(trifluoromethyl)-2,3-dihydroquinazolin-4(1H)-one] cannot be ordered by IC50: at most 100 nM for the first, at most 100 nM for the second.

First: CCc1cc(F)ccc1N1CN(c2ccc(=O)[nH]c2C)C(=O)c2cc(F)ccc21 [Example 116, 1-(2-ethyl-4-fluorophenyl)-6-fluoro-3-(2-methyl-6-oxo-1,6-dihydropyridin-3-yl)-2,3-dihydroquinazolin-4(1H)-one]
Second: COc1cc(F)ccc1N1CN(c2ccc(=O)[nH]c2C)C(=O)c2cc(F)c(F)cc21 [Example 132, 6,7-difluoro-1-(4-fluoro-2-methoxyphenyl)-3-(2-methyl-6-oxo-1,6-dihydropyridin-3-yl)-2,3-dihydroquinazolin-4(1H)-one]
The IC50 of the first is lower: at most 100 nM for the first, 126 to 631 nM for the second.

First: Cc1cc(C#N)ccc1N1CN(c2ccc(=O)[nH]c2C)C(=O)c2cc(Cl)ccc21 [Example 117, 4-(6-chloro-3-(2-methyl-6-oxo-1,6-dihydropyridin-3-yl)-4-oxo-3,4-dihydroquinazolin-1(2H)-yl)-3-methylbenzonitrile]
Second: Cc1[nH]c(=O)ccc1N1CN(c2cccc(C#N)c2C)c2ccc(Cl)cc2C1=O [Example 128, 3-(6-chloro-3-(2-methyl-6-oxo-1,6-dihydropyridin-3-yl)-4-oxo-3,4-dihydroquinazolin-1(2H)-yl)-2-methylbenzonitrile]
The IC50 of the first is lower: at most 100 nM for the first, 126 to 631 nM for the second.

First: Cc1cc(OC(F)(F)F)ccc1N1CN(c2ccc(=O)[nH]c2)C(=O)c2cc(C(F)(F)F)cnc21 [Example 119, 1-(2-methyl-4-(trifluorometh-oxy)phenyl)-3-(6-oxo-1,6-dihydropyridin-3-yl)-6-(trifluoromethyl)-2,3-dihydropyrido[2,3-d]pyrimidin-4(1H)-one]
Second: COc1ccc(N2CN(c3ccc(=O)[nH]c3C)C(=O)c3cc(C(F)(F)F)ccc32)c(C)c1 [Example 126, 1-(4-methoxy-2-methylphenyl)-3-(2-methyl-6-oxo-1,6-dihydropyridin-3-yl)-6-(trifluoromethyl)-2,3-dihydroquinazolin-4(1H)-one]
The IC50 of the first is higher: 126 to 631 nM for the first, at most 100 nM for the second.

First: Cc1[nH]c(=O)ccc1N1CN(c2cccc(F)c2C)c2ccc(C(F)(F)F)cc2C1=O [Example 120, 1-(3-fluoro-2-methylphenyl)-3-(2-methyl-6-oxo-1,6-dihydropyridin-3-yl)-6-(trifluoromethyl)-2,3-dihydroquinazolin-4(1H)-one]
Second: Cc1cccc(F)c1N1CN(c2ccc(=O)[nH]c2C)C(=O)c2cc(C(F)(F)F)ccc21 [Example 135, 1-(2-fluoro-6-methylphenyl)-3-(2-methyl-6-oxo-1,6-dihydropyridin-3-yl)-6-(trifluoromethyl)-2,3-dihydroquinazolin-4(1H)-one]
The IC50 of the first is lower: at most 100 nM for the first, 794 to 7940 nM for the second.

`Cc1[nH]c(=O)ccc1N1CN(c2ccc(F)cc2C(C)C)c2nc(C(F)F)ccc2C1=O` [Example 122, 7-(difluoromethyl)-1-(4-fluoro-2-isopropylphenyl)-3-(2-methyl-6-oxo-1,6-dihydropyridin-3-yl)-2,3-dihydropyrido[2,3-d]pyrimidin-4(1H)-one] and `Cc1[nH]c(=O)ccc1N1CN(c2ccc(F)cc2C(C)C)c2cc(C(F)F)ccc2C1=O` [Example 137, 7-(difluoromethyl)-1-(4-fluoro-2-isopropylphenyl)-3-(2-methyl-6-oxo-1,6-dihydropyridin-3-yl)-2,3-dihydroquinazolin-4(1H)-one] cannot be ordered by IC50: at most 100 nM for the first, at most 100 nM for the second.

First: Cc1cc(C#N)ccc1N1CN(c2ccc(=O)[nH]c2C)C(=O)c2cc(OC(F)(F)F)ccc21 [Example 123, 3-methyl-4-(3-(2-methyl-6-oxo-1,6-dihydropyridin-3-yl)-4-oxo-6-(trifluoromethoxy)-3,4-dihydroquinazolin-1(2H)-yl)benzonitrile]
Second: Cc1cc(O)ccc1N1CN(c2ccc(=O)[nH]c2C)C(=O)c2cc(C(F)(F)F)ccc21 [Example 127, 1-(4-hydroxy-2-methylphenyl)-3-(2-methyl-6-oxo-1,6-dihydropyridin-3-yl)-6-(trifluoromethyl)-2,3-dihydroquinazolin-4(1H)-one]
The IC50 of the first is lower: at most 100 nM for the first, 126 to 631 nM for the second.

`Cc1cc(F)ccc1N1CN(c2ccc(=O)[nH]c2C)C(=O)c2cccc(Cl)c21` [Example 124, 8-chloro-1-(4-fluoro-2-methylphenyl)-3-(2-methyl-6-oxo-1,6-dihydropyridin-3-yl)-2,3-dihydroquinazolin-4(1H)-one] and `Cc1cc(F)ccc1N1CN(c2ccc(=O)[nH]c2C)C(=O)c2cccc(C)c21` [Example 125, 1-(4-fluoro-2-methylphenyl)-8-methyl-3-(2-methyl-6-oxo-1,6-dihydropyridin-3-yl)-2,3-dihydroquinazolin-4(1H)-one] fall in the same range of IC50: 794 to 7940 nM for the first, 794 to 7940 nM for the second.

Compared with `Cc1cc(F)ccc1N1CN(c2ccc(=O)[nH]c2C)C(=O)c2c(C(F)F)cccc21` [Example 130, 5-(difluoromethyl)-1-(4-fluoro-2-methylphenyl)-3-(2-methyl-6-oxo-1,6-dihydropyridin-3-yl)-2,3-dihydroquinazolin-4(1H)-one], `Cc1cc(F)ccc1N1CN(c2ccc(=O)[nH]c2C)C(=O)c2ccc(C(F)F)cc21` [Example 138, 7-(difluoromethyl)-1-(4-fluoro-2-methylphenyl)-3-(2-methyl-6-oxo-1,6-dihydropyridin-3-yl)-2,3-dihydroquinazolin-4(1H)-one] is lower in IC50: 126 to 631 nM for the first, at most 100 nM for the second.

First: Cc1ccc(N2CN(c3ccc(=O)[nH]c3C)C(=O)c3cc(Cl)ccc32)c(O)c1 [Example 133, 6-chloro-1-(2-hydroxy-4-methylphenyl)-3-(2-methyl-6-oxo-1,6-dihydropyridin-3-yl)-2,3-dihydroquinazolin-4(1H)-one]
Second: COc1cc(C)ccc1N1CN(c2ccc(=O)[nH]c2C)C(=O)c2cc(Cl)ccc21 [Example 134, 6-chloro-1-(2-methoxy-4-methylphenyl)-3-(2-methyl-6-oxo-1,6-dihydropyridin-3-yl)-2,3-dihydroquinazolin-4(1H)-one]
The IC50 of the first is higher: 794 to 7940 nM for the first, 126 to 631 nM for the second.

Compared with `Cc1cc(F)ccc1N1CN(c2cc[nH]c(=O)c2)C(=O)c2c1ccc(Cl)c2F` [Example 136, 6-chloro-5-fluoro-1-(4-fluoro-2-methylphenyl)-3-(2-oxo-1,2-dihydropyridin-4-yl)-2,3-dihydroquinazolin-4(1H)-one], `CCc1[nH]c(=O)ccc1N1CN(c2ccc(F)cc2C(C)C)c2ccc(Cl)cc2C1=O` [Example 139, 6-chloro-3-(2-ethyl-6-oxo-1,6-dihydropyridin-3-yl)-1-(4-fluoro-2-isopropylphenyl)-2,3-dihydroquinazolin-4(1H)-one] is lower in IC50: 794 to 7940 nM for the first, at most 100 nM for the second.

Reference: patent publication US20230103791A1 (GLAXOSMITHKLINE INTELLECTUAL PROPERTY DEVELOPMENT LIMITED, priority 2019, published 2023)
